Where two headings read alike, the source gives them in different places.
Tests used:
[1] = tested on: non-depressed patients with GAD; conditions: for change from baseline in HAM-A total score, observed case analysis: significant
[2] = hypothesis to be tested, compared to paroxetine
[3] = hypothesis to be tested, vs placebo

OCCOCCN1CCN(C2=Nc3ccccc3Sc3ccccc32)CC1 [quetiapine, 11-[4-[2-(2-hydroxyethoxy)ethyl]-1-piperazinyl]-dibenzo[b,f][1,4]thiazepine]
reduction in HAM-A psychic anxiety subscale, observed cases ([1]; Week 2, placebo −3.0): −6.6
change from baseline in HAM-A total score, observed case analysis ([1]; Week 2, placebo −5.9): −11.1
reduction in HAM-A psychic anxiety subscale, observed cases ([1]; Week 4, placebo −4.0): −7.8
change from baseline in HAM-A total score, observed case analysis ([1]; Week 4, placebo −8.6): −13.7
mean decrease from baseline in HAM-A total score ([1]; baseline to week 6, ITT, LOCF, placebo about 9, difference not significant, mean dose 125 mg/day): about 12
AIMS, SAS, or BARS scores versus placebo ([1]; in vivo): no statistically significant differences
tolerability ([1]; in vivo): generally well tolerated
patients who discontinued treatment because of AEs ([1]; of 19 in the group): Five
remission rate at endpoint (HAM-A total score ≦7) ([1]; placebo 21.1%, not statistically significant): 42.1%
response rate at endpoint (≧50% reduction in HAM-A total score) ([1]; placebo 36.8%, not statistically significant): 57.9%
reduction from baseline on the CGI-S ([1]; placebo −1.05): −1.37
reduction from baseline on the Hospital Anxiety and Depression (HAD) anxiety subscale ([1]; placebo −3.16): −3.79
reduction from baseline on the HAM-A somatic subscale ([1]; placebo −4.4): −5.2
Change from randomization in the Hamilton Anxiety Scale (HAM-A) total score at Day 57 (patients with GAD; claim to be addressed, primary outcome, vs placebo): more effective
Adverse events of nausea or vomiting (patients with GAD; [2]): lower levels of nausea and
Incidence of withdrawals due to adverse events (patients with GAD; [2]): Quetiapine has similar
Sexual dysfunction: change from randomization in CSFQ total score at Day 57 (patients with GAD; [2]): lower levels of sexual
Somnolence: severity of AEs, time of first instance, withdrawals due to AE of somnolence (patients with GAD; hypothesis to be tested, compared to placebo): generally mild, occurs early in
Change from randomization in HAM-A total score, HAM-A psychic cluster, HAM-A somatic cluster and CGI-S score at Day 4 (patients with GAD; hypothesis to be tested, compared to placebo, Day 4): anti-anxiety effect by Day 4
Change from randomization in MADRS total score at Day 57 (patients with GAD; hypothesis to be tested, depressive symptoms in GAD, vs placebo): Quetiapine is more effective
Adverse events related to discontinuation; change in Discontinuation-Emergent Signs and Symptoms total score at Day 64 and Day 71 (patients with GAD; hypothesis to be tested, discontinuation symptoms): Quetiapine does not have
Change from normal to Clinically Important in Physical Examinations; Laboratory values; Vital signs; ECGs (patients with GAD; hypothesis to be tested, once daily up to 150 mg/day): 150 mg/day is safe and well
Change from randomization in Q-les-Q Item 15 (Satisfaction with medication) at Day 57 (patients with GAD; hypothesis to be tested, patient satisfaction, vs placebo): Quetiapine is more effective
Change from randomization in Q-les-Q total score and Q-les-Q Item 16 (Overall life satisfaction) at Day 57 (patients with GAD; hypothesis to be tested, quality of life, vs placebo): Quetiapine is more effective
HAM-A Response (decrease from randomization total score of ≧50%) at Day 4 (patients with GAD; hypothesis to be tested, response rate vs placebo, Day 4): Quetiapine has a greater
HAM-A Response (decrease from randomization total score of ≧50%) at Day 57 (patients with GAD; hypothesis to be tested, response rate vs placebo, Day 57): Quetiapine has a greater
Change from randomization in PSQI score and MADRS sleep disturbance factor (Item 4) at Day 57 (patients with GAD; hypothesis to be tested, sleep quality, vs placebo): Quetiapine is superior to
Change from randomization in HAM-A total score, CGI Global Improvement, HAM-A psychic and somatic clusters at Day 57 (patients with GAD; hypothesis to be tested, versus paroxetine): Quetiapine is at least as
Adverse events of nausea or vomiting (patients with GAD; [3]): placebo levels of nausea and
Adverse events related to EPS (including akathisia); change in SAS and BARS scores at Day 57 (patients with GAD; [3]): placebo levels of EPS
HAM-A Remission (HAM-A total score ≦7) at Day 57 (patients with GAD; [3]): Quetiapine is better than
Sexual dysfunction: change from randomization in CSFQ total score at Day 57 (patients with GAD; [3]): placebo levels of sexual
Change from randomization in CGI-S score, CGI-I (much or very much improved), HAM-A psychic and somatic clusters at Day 57 (patients with GAD; hypothesis to be tested, vs placebo, across anxiety symptoms): Quetiapine is more effective
